Measurements reported in patent US10232013B2, “Use of an antimicrobial peptide TP4 in treating a cancer” (Academia Sinica, priority 2016, dated 2019).
Marks after values point to notes of the source that are not given here. Where no end group is shown, it is not given here.

Assays:
MCF7 cells = test: MTS cell viability assay, MCF7; assay type: cell-based, human; settings: mean±SD
Protocol: (§1) Cell-lines used in this study were purchased from the Bioresource Collection and Research Center (BCRC) in and the cells were cultured by the standard cell culture procedures and conditions provided by the BCRC. MB231 (BCRC 60425), MB453 (BCRC 60429), and HDF cells were cultured as previously described by Ting et al. MCF7 […] cells were maintained in α-MEM medium (ThermoFisher Scientific) supplemented with 2 mM L-glutamine, 10% FBS, 0.1 mM non-essential amino acids, 1 mM sodium pyruvate, and antibiotics (100 U mL^−1 penicillin G and […] streptomycin). M10 (BCRC 60197) cells were maintained in α-MEM medium (ThermoFisher Scientific) supplemented with 10% FBS and antibiotics. With the exception of MB231 and MB453, all cells were cultured at 37° C. with 5% CO2. For the cell viability and transfection assay, 1×10^4 cells [5×10^3 M10 cells were seeded and cultured for 48 h to allow the cells sufficient time for attachment] were seeded into the wells of a 96-well plate and cultured overnight. For the transfection assays, cells were transfected with 0.1-0.4 μg FOSB/FOSAB expression plasmid (Origene Technology Inc.) and cell viability was determined after 72 h. The transfection efficiencies (number of cells expressing eGFP/all cells) of the MB231 transfection assays were determined by observing ten randomly selected fields (from three independent transfections) of control GFP plasmid transfections under an inverted microscope (Olympus, IX71) coupled to a digital camera (Olympus DP80), using an […] (LCPlanFI 20×/0.40 Ph1). CellSens standard software (Olympus) was used for image acquisition. During the drug treatment assay, inhibitors (PD98059, BAPTA-AM, and AlP II) were added 30 min prior to TP4, and cell viability was determined at indicated time-points. Transfection was performed using LipofectAMINE™ 3000 (ThermoFisher Scientific), according to the manufacturer's recommendations. Knock-down cells were generated by transducing MB231 cells with pre-synthesized FOSB (or control) shRNA lentiviral particles (Santa Cruz Biotechnology), and selecting puromycin-resistant cells in accordance with the manufacturer's standard protocol. MB231 or M10 cells stably expressing eGFP or mOrange2 were generated through transfection with peGFP-puromycin or pmOrange2-C1 plasmid, followed by puromycin (5 μg mL^−1) or G418 (500 μg mL^−1) selection as described above.
(§2) Cell viability was quantitatively analyzed using the CellTiter-Glo® Luminescent Cell Viability Assay kit (ATP assay) and CellTiter 96® AQueous Non-Radioactive Cell Proliferation Assay kit (MTS assay) (Promega) in accordance with the manufacturer's protocol. For MTS assay, 1×10^4 cells were seeded into the wells of a 96-well plate and cultured overnight [5×10^3 M10 cells were seeded and cultured for 48 h to enable sufficient well attachment]. Cells were subsequently treated with different doses of TP4 (2.5-20 μg mL^−1) and harvested at the indicated time-points (3-24 h). Reaction mixtures (20 μL: MTS+PMS, using a ratio 20:1) were directly added to the cells, and the plates were incubated for 3 h at 37° C. Absorbance at 490 nm is directly proportional to the number of living cells in culture and was measured using a photometer (SpectraMax® i3, Molecular Devices). ATP assay was performed as previously described by Ting et al. Lactate dehydrogenase (LDH) assays were performed by quantitatively measuring cell lysis with a Cytotoxicity Detection Kit^PLUS (LDH) (Roche) in accordance with the manufacturer's protocol. The LDH standard was purchased from Cayman Chemical. Briefly, 1×10^4 cells were seeded into the wells of a 96-well plate and cultured overnight. Culture media were replaced with fresh medium containing 1% FBS and cells were subsequently treated with different doses of TP4 (2.5-20 μg mL^−1). Supernatants were harvested at 3 h. […]

MB453 (MDA-MB453) cells = test: MTS cell viability assay, MB453; assay type: cell-based, human; settings: mean±SD
Protocol: as §1, §2

Sequence: FIHHIIGGLFSAGKAIHRLIRRRRR [TP4, tilapia piscidin 4]
- Cellular toxicity (cell viability), MTS assay (MCF7 cells; MCF7, TP4 2.5 μg/mL, 3 h): 98.00 ± 6.05^a
- Cellular toxicity (cell viability), MTS assay (MCF7 cells; MCF7, TP4 2.5 μg/mL, 6 h): 91.20 ± 6.51^b
- Cellular toxicity (cell viability), MTS assay (MCF7 cells; MCF7, TP4 2.5 μg/mL, 12 h): 93.01 ± 10.60^b
- Cellular toxicity (cell viability), MTS assay (MCF7 cells; MCF7, TP4 2.5 μg/mL, 24 h): 90.83 ± 5.30^b
- Cellular toxicity (cell viability), MTS assay (MCF7 cells; MCF7, TP4 5.0 μg/mL, 3 h): 83.74 ± 6.10^d
- Cellular toxicity (cell viability), MTS assay (MCF7 cells; MCF7, TP4 5.0 μg/mL, 6 h): 79.17 ± 12.06^d
- Cellular toxicity (cell viability), MTS assay (MCF7 cells; MCF7, TP4 5.0 μg/mL, 12 h): 77.79 ± 7.73^d
- Cellular toxicity (cell viability), MTS assay (MCF7 cells; MCF7, TP4 5.0 μg/mL, 24 h): 75.19 ± 11.28^d
- Cellular toxicity (cell viability), MTS assay (MCF7 cells; MCF7, TP4 10.0 μg/mL, 3 h): 75.01 ± 11.15^d
- Cellular toxicity (cell viability), MTS assay (MCF7 cells; MCF7, TP4 10.0 μg/mL, 6 h): 70.30 ± 12.26^d
- Cellular toxicity (cell viability), MTS assay (MCF7 cells; MCF7, TP4 10.0 μg/mL, 12 h): 68.89 ± 6.54^d
- Cellular toxicity (cell viability), MTS assay (MCF7 cells; MCF7, TP4 10.0 μg/mL, 24 h): 67.00 ± 10.90^d
- Cellular toxicity (cell viability), MTS assay (MCF7 cells; MCF7, TP4 15.0 μg/mL, 3 h): 45.15 ± 9.89^d
- Cellular toxicity (cell viability), MTS assay (MCF7 cells; MCF7, TP4 15.0 μg/mL, 6 h): 28.28 ± 6.29^d
- Cellular toxicity (cell viability), MTS assay (MCF7 cells; MCF7, TP4 15.0 μg/mL, 12 h): 26.23 ± 6.08^d
- Cellular toxicity (cell viability), MTS assay (MCF7 cells; MCF7, TP4 15.0 μg/mL, 24 h): 25.09 ± 3.83^d
- Cellular toxicity (cell viability), MTS assay (MCF7 cells; MCF7, TP4 20.0 μg/mL, 3 h): 24.63 ± 3.80^d
- Cellular toxicity (cell viability), MTS assay (MCF7 cells; MCF7, TP4 20.0 μg/mL, 6 h): 15.48 ± 2.33^d
- Cellular toxicity (cell viability), MTS assay (MCF7 cells; MCF7, TP4 20.0 μg/mL, 12 h): 14.36 ± 2.10^d
- Cellular toxicity (cell viability), MTS assay (MCF7 cells; MCF7, TP4 20.0 μg/mL, 24 h): 11.90 ± 3.39^d
- Cellular toxicity (cell viability), MTS assay (MB453 (MDA-MB453) cells; MB453, TP4 2.5 μg/mL, 3 h): 93.75 ± 4.33^d
- Cellular toxicity (cell viability), MTS assay (MB453 (MDA-MB453) cells; MB453, TP4 2.5 μg/mL, 6 h): 86.51 ± 4.19^d
- Cellular toxicity (cell viability), MTS assay (MB453 (MDA-MB453) cells; MB453, TP4 2.5 μg/mL, 12 h): 92.21 ± 6.61^d
- Cellular toxicity (cell viability), MTS assay (MB453 (MDA-MB453) cells; MB453, TP4 2.5 μg/mL, 24 h): 87.84 ± 4.75^d
- Cellular toxicity (cell viability), MTS assay (MB453 (MDA-MB453) cells; MB453, TP4 5.0 μg/mL, 3 h): 91.50 ± 4.32^d
- Cellular toxicity (cell viability), MTS assay (MB453 (MDA-MB453) cells; MB453, TP4 5.0 μg/mL, 6 h): 76.46 ± 6.25^d
- Cellular toxicity (cell viability), MTS assay (MB453 (MDA-MB453) cells; MB453, TP4 5.0 μg/mL, 12 h): 80.18 ± 5.41^d
- Cellular toxicity (cell viability), MTS assay (MB453 (MDA-MB453) cells; MB453, TP4 5.0 μg/mL, 24 h): 87.00 ± 4.16^d
- Cellular toxicity (cell viability), MTS assay (MB453 (MDA-MB453) cells; MB453, TP4 10.0 μg/mL, 3 h): 77.82 ± 4.33^d
- Cellular toxicity (cell viability), MTS assay (MB453 (MDA-MB453) cells; MB453, TP4 10.0 μg/mL, 6 h): 58.58 ± 5.43^d
- Cellular toxicity (cell viability), MTS assay (MB453 (MDA-MB453) cells; MB453, TP4 10.0 μg/mL, 12 h): 62.25 ± 10.74^d
- Cellular toxicity (cell viability), MTS assay (MB453 (MDA-MB453) cells; MB453, TP4 10.0 μg/mL, 24 h): 77.24 ± 4.07^d
- Cellular toxicity (cell viability), MTS assay (MB453 (MDA-MB453) cells; MB453, TP4 15.0 μg/mL, 3 h): 53.12 ± 10.90^d
- Cellular toxicity (cell viability), MTS assay (MB453 (MDA-MB453) cells; MB453, TP4 15.0 μg/mL, 6 h): 27.09 ± 2.54^d
- Cellular toxicity (cell viability), MTS assay (MB453 (MDA-MB453) cells; MB453, TP4 15.0 μg/mL, 12 h): 27.32 ± 5.51^d
- Cellular toxicity (cell viability), MTS assay (MB453 (MDA-MB453) cells; MB453, TP4 15.0 μg/mL, 24 h): 58.93 ± 2.80^d
- Cellular toxicity (cell viability), MTS assay (MB453 (MDA-MB453) cells; MB453, TP4 20.0 μg/mL, 3 h): 36.33 ± 5067^d
- Cellular toxicity (cell viability), MTS assay (MB453 (MDA-MB453) cells; MB453, TP4 20.0 μg/mL, 6 h): 18.25 ± 1.80^d
- Cellular toxicity (cell viability), MTS assay (MB453 (MDA-MB453) cells; MB453, TP4 20.0 μg/mL, 12 h): 15.02 ± 4.28^d
- Cellular toxicity (cell viability), MTS assay (MB453 (MDA-MB453) cells; MB453, TP4 20.0 μg/mL, 24 h): 40.15 ± 2.66^d
